Experimental data: ChEMBL document CHEMBL5370641, “Structure-Based Optimization and Biological Evaluation of Potent and Selective MMP-7 Inhibitors for Kidney Fibrosis” (J Med Chem, 2023)
The source made the active and inactive calls. The calls are words filed in the database; no cut-off is given here. Numbered stars: 1 amine (or outer) side, 2 acyl side, 3 side chain; on linkers, the order of the positions; unused ones are H or OH. Square brackets hold non-standard residues; d marks the D form. Peptide text beside a SMILES is read from it. * marks the point of attachment. Benzenesulfonyl(4-Cl,3-CF3) = O=S(=O)(c1ccc(Cl)c(C(F)(F)F)c1)*; γGlu = O=C(O)[C@H](CCC(=O)[*:2])N[*:1]; 4Pal = N[C@@H](Cc1ccncc1)C(=O)O; Tle = CC(C)(C)[C@H](N)C(=O)O; β3hP = O=C(O)C[C@@H]1CCCN1

Experiments:
Neutrophil collagenase = Neutrophil collagenase (Homo sapiens, UniProt P22894); assay: Inhibition of recombinant human MMP8 using MOCAc-Pro-Leu-Gly-Leu-A2pr-(Dnp)-Ala-Arg-NH2 as substrate preincubated with compound for 15 mins followed by substrate addition and measured after 1 hrs by fluorescence based analysis
Matrilysin [1] = target: T1, Matrilysin (Homo sapiens, UniProt P09237); assay: Inhibition of recombinant human MMP7 using MOCAc-Pro-Leu-Gly-Leu-A2pr-(Dnp)-Ala-Arg-NH2 as substrate preincubated with compound for 15 mins followed by substrate addition and measured after 2 hrs by fluorescence based analysis
T1 sequence (P09237 whole entry): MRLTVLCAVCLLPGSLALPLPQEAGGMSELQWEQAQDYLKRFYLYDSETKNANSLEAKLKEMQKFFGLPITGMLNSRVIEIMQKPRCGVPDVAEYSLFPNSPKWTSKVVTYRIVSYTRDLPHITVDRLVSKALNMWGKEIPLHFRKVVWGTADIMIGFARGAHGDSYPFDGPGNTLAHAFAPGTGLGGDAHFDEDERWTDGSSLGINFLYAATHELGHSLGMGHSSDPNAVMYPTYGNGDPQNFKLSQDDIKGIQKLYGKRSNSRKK

[2] = target: Matrix metalloproteinase-14 (Homo sapiens, UniProt P50281); assay: Inhibition of recombinant human MMP14 using MOCAc-Lys-Pro-Leu-Gly-Leu-A2pr(Dnp)-Ala-Arg-NH2 as substrate preincubated with compound for 15 mins followed by substrate addition and measured after 1 hrs by fluorescence based analysis
Interstitial collagenase = target: T2, Interstitial collagenase (Homo sapiens, UniProt P03956); assay: Inhibition of recombinant human MMP1 using MOCAc-Lys-Pro-Leu-Gly-Leu-A2pr(Dnp)-Ala-Arg-NH2 as substrate preincubated with compound for 15 mins followed by substrate addition and measured after 1 hrs by fluorescence based analysis
T2 sequence (P03956 whole entry): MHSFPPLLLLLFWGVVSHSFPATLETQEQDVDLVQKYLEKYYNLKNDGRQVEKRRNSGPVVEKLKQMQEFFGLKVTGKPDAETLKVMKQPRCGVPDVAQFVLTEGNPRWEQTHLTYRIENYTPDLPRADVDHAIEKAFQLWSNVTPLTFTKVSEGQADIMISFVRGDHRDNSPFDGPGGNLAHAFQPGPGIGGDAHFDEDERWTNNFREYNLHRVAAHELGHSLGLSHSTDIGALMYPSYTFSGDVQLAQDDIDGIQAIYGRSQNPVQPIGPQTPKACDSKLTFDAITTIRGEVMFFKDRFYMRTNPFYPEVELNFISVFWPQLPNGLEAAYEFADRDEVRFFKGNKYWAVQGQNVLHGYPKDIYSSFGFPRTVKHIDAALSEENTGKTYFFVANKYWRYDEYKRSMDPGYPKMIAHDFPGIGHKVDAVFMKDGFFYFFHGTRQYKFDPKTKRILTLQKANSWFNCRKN

[3] = target: 72 kDa type IV collagenase (Homo sapiens, UniProt P08253); assay: Inhibition of recombinant human MMP2 using MOCAc-Pro-Leu-Gly-Leu-A2pr-(Dnp)-Ala-Arg-NH2 as substrate preincubated with compound for 15 mins followed by substrate addition and measured after 1 hrs by fluorescence based analysis
Stromelysin-1 = Stromelysin-1 (Homo sapiens, UniProt P08254); assay: Inhibition of recombinant human MMP3 using MOCAc-Arg-Pro-Lys-Pro-Val-Glu-Nva-Trp-Arg-Lys(Dnp)-NH2 as substrate preincubated with compound for 15 mins followed by substrate addition and measured after 1 hrs by fluorescence based analysis
[4] = target: Matrix metalloproteinase-9 (Homo sapiens, UniProt P14780); assay: Inhibition of recombinant human MMP9 using MOCAc-Pro-Leu-Gly-Leu-A2pr-(Dnp)-Ala-Arg-NH2 as substrate preincubated with compound for 15 mins followed by substrate addition and measured after 1 hrs by fluorescence based analysis
[5] = target: Macrophage metalloelastase (Homo sapiens, UniProt P39900); assay: Inhibition of recombinant human MMP12 using MOCAc-Pro-Leu-Gly-Leu-A2pr-(Dnp)-Ala-Arg-NH2 as substrate preincubated with compound for 15 mins followed by substrate addition and measured after 1 hrs by fluorescence based analysis
Collagenase 3 = Collagenase 3 (Homo sapiens, UniProt P45452); assay: Inhibition of recombinant human MMP13 using MOCAc-Pro-Leu-Gly-Leu-A2pr-(Dnp)-Ala-Arg-NH2 as substrate preincubated with compound for 15 mins followed by substrate addition and measured after 1 hrs by fluorescence based analysis
[6] = Metabolic stability in human serum assessed as parent compound remaining at 5 uM incubated for 4 hrs by LC-MS/MS analysis; assay type: ADME, cell-free; conditions: read-out: Stability
Homo sapiens [7] = species: Homo sapiens; assay: Selectivity ratio of IC50 for inhibition of recombinant human MMP1 to IC50 for inhibition of recombinant human MMP7
Homo sapiens [8] = species: Homo sapiens; assay: Selectivity ratio of IC50 for inhibition of recombinant human MMP2 to IC50 for inhibition of recombinant human MMP7
Homo sapiens [9] = species: Homo sapiens; assay: Selectivity ratio of IC50 for inhibition of recombinant human MMP3 to IC50 for inhibition of recombinant human MMP7
Homo sapiens [10] = species: Homo sapiens; assay: Selectivity ratio of IC50 for inhibition of recombinant human MMP8 to IC50 for inhibition of recombinant human MMP7
Homo sapiens [11] = species: Homo sapiens; assay: Selectivity ratio of IC50 for inhibition of recombinant human MMP9 to IC50 for inhibition of recombinant human MMP7
Homo sapiens [12] = species: Homo sapiens; assay: Selectivity ratio of IC50 for inhibition of recombinant human MMP12 to IC50 for inhibition of recombinant human MMP7
Homo sapiens [13] = species: Homo sapiens; assay: Selectivity ratio of IC50 for inhibition of recombinant human MMP13 to IC50 for inhibition of recombinant human MMP7
Homo sapiens [14] = species: Homo sapiens; assay: Selectivity ratio of IC50 for inhibition of recombinant human MMP14 to IC50 for inhibition of recombinant human MMP7
[15] = Lipophilicity, logD of compound at pH 7.4 by HPLC-UV analysis; assay type: physicochemical; conditions: buffer
[16] = Protein binding in human serum incubated for 4 hrs by equilibrium dialysis based LC-MS/MS analysis; assay type: ADME, cell-free; conditions: read-out: PB (converted)
[17] = Protein binding in mouse serum incubated for 4 hrs by equilibrium dialysis based LC-MS/MS analysis; assay type: ADME, cell-free; conditions: read-out: PB (converted)
[18] = Metabolic stability in human liver microsome assessed as intrinsic clearance at 1 uM incubated for 15 mins by LC-MS analysis; assay type: ADME; conditions: liver microsomes, read-out: CLH (converted)
[19] = Metabolic stability in rat liver microsome assessed as intrinsic clearance at 1 uM incubated for 15 mins by LC-MS analysis; assay type: ADME; conditions: liver microsomes, read-out: CLH (converted)
[20] = Metabolic stability in rat hepatocytes assessed as intrinsic clearance at 1 uM incubated for 1 to 4 hrs by LC-MS/MS analysis; assay type: ADME, cell-based, Hepatocyte; conditions: time 1-4 hrs, read-out: CLH (converted)
[21] = Total clearance in Sprague-Dawley rat at 1 mg/kg, iv administered as single dose by LC-MS/MS analysis; assay type: ADME, organism-based; conditions: in vivo
[22] = Volume of distribution at steady state in Sprague-Dawley rat at 1 mg/kg, iv administered as single dose by LC-MS/MS analysis; assay type: ADME, organism-based; conditions: in vivo, read-out: Vdss
Matrilysin [23] = target: T3, Matrilysin (Mus musculus, UniProt Q10738); assay: Inhibition of mouse MMP7 using MOCAc-Pro-Leu-Gly-Leu-A2pr-(Dnp)-Ala-Arg-NH2 as substrate preincubated with compound for 15 mins followed by substrate addition and measured after 2 hrs by fluorescence based analysis
T3 sequence (Q10738 whole entry): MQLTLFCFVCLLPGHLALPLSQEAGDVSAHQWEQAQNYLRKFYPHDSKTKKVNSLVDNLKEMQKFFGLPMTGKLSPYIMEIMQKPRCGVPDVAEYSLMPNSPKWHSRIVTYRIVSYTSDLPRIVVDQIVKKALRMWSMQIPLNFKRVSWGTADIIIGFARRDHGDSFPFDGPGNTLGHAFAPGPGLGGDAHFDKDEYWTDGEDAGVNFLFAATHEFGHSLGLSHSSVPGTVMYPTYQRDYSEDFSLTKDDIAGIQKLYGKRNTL

Mus musculus = assay: Antifibrotic activity against unilateral ureteric obstruction induced C57BL/6J mouse model of renal fibrosis assessed as reduction in renal collagen at 10 to 100 mg/kg/day, SC preadministered with compound for 7 days followed by UUO surgery and measured after 7 days; assay type: functional, organism-based; conditions: dose 10-100 mg/kg/day, time 14.0 day

Sequence of Stromelysin-1 (P08254 whole entry): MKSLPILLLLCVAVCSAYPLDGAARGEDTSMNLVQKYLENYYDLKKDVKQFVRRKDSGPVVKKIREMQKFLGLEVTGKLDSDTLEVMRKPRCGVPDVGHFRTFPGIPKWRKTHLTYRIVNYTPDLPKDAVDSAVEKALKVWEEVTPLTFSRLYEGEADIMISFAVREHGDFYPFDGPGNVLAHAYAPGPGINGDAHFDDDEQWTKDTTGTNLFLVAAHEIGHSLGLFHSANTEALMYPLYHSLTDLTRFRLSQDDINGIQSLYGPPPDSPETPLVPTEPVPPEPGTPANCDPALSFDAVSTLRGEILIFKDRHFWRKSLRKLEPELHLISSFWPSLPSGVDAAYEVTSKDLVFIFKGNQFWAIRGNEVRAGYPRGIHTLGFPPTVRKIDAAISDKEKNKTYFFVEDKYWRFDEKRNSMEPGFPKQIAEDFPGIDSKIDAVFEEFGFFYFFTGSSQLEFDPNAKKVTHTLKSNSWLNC
Sequence of 72 kDa type IV collagenase (P08253 whole entry): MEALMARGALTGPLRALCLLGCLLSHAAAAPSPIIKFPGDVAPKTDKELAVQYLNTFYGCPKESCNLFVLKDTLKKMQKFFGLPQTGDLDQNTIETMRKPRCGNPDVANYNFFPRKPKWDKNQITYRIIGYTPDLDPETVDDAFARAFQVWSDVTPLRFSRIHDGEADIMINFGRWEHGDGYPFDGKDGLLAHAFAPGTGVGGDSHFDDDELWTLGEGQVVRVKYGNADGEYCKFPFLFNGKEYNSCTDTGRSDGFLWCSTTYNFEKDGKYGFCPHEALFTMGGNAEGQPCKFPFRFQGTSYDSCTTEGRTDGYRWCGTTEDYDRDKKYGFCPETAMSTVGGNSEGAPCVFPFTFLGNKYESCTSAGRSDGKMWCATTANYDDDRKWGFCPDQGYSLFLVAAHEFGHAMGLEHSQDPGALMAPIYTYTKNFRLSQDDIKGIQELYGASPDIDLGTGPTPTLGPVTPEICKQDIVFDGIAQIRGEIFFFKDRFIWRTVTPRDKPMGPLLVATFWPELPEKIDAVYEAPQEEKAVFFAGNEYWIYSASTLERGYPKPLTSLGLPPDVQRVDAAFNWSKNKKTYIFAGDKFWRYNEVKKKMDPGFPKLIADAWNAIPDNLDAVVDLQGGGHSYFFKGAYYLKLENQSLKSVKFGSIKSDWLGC
Sequence of Macrophage metalloelastase (P39900 whole entry): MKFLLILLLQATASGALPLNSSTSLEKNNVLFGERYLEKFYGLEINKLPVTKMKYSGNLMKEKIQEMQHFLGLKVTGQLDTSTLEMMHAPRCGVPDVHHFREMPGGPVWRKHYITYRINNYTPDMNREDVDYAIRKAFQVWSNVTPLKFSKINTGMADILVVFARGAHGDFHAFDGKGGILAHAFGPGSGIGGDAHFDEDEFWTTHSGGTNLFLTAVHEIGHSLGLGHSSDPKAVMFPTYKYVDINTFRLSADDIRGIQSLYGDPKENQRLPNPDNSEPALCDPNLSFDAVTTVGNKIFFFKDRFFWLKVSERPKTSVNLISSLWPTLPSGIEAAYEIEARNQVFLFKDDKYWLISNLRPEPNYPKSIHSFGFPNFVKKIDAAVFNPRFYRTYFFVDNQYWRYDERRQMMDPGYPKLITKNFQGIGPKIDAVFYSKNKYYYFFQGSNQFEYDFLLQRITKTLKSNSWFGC
Sequence of Neutrophil collagenase (P22894 whole entry): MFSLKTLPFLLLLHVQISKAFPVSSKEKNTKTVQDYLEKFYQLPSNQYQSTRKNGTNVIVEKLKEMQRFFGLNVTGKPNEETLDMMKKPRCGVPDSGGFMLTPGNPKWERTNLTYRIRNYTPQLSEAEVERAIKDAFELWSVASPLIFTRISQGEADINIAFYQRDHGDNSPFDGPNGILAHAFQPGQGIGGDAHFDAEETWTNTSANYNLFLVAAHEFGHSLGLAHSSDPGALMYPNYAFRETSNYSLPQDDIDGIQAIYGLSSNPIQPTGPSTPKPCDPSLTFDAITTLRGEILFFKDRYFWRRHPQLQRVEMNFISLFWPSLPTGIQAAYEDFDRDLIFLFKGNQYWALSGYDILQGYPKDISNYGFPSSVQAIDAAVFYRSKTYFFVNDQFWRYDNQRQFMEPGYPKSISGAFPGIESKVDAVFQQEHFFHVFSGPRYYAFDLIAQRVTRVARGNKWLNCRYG
Sequence of Matrix metalloproteinase-9 (P14780 whole entry): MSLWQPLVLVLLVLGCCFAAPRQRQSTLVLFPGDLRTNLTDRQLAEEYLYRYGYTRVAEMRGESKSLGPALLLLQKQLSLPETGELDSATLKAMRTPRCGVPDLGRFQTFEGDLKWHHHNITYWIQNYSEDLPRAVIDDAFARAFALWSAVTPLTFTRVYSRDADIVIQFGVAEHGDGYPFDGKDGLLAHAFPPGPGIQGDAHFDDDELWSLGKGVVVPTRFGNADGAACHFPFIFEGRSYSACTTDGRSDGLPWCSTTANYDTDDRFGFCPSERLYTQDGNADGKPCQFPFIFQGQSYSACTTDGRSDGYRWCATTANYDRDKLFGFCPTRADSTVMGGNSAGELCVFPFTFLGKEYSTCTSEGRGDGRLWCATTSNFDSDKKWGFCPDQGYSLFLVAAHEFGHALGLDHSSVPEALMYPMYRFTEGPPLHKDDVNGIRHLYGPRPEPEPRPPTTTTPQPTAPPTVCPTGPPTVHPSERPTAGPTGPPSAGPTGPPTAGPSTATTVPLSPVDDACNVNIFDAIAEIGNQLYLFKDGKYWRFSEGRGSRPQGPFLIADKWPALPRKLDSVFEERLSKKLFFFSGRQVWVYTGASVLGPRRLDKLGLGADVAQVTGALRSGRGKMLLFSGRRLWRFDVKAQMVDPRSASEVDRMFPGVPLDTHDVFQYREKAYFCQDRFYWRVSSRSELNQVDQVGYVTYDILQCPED

- IC50 (Neutrophil collagenase): > 100000 nM
- IC50 (Matrilysin [1]): 2.8 nM
- IC50 [2]: 850 nM
- IC50 (Interstitial collagenase): > 100000 nM
- IC50 [3]: 7500 nM
- IC50 (Stromelysin-1): > 100000 nM
- IC50 [4]: > 100000 nM
- IC50 [5]: 1300 nM
- IC50 (Collagenase 3): > 100000 nM
- remaining at 4 h, 5 µM [6]: 101%
- Ratio IC50 (Homo sapiens [7]): > 36000
- Ratio IC50 (Homo sapiens [8]): 2700
- Ratio IC50 (Homo sapiens [9]): > 36000
- Ratio IC50 (Homo sapiens [10]): > 36000
- Ratio IC50 (Homo sapiens [11]): > 36000
- Ratio IC50 (Homo sapiens [12]): 460
- Ratio IC50 (Homo sapiens [13]): > 36000
- Ratio IC50 (Homo sapiens [14]): 300
- logD [15]: 1.04
- fraction unbound at 4 h [16]: 0.266
- fraction unbound at 4 h [17]: 0.368
- CLint scaled at 1 µM [18]: 13.6 mL/min/kg
- CLint scaled at 1 µM [19]: 23.6 mL/min/kg
- CLint scaled at 1 µM [20]: 11 mL/min/kg
- clearance [21]: 85.5 mL/min/kg
- Vd [22]: 1.09 L/kg
- IC50 (Matrilysin [23]): 49 nM
Compound: CC(C)(C)[C@H](NC(=O)[C@H](Cc1ccncc1)NC(=O)CNC(=O)CC[C@H](NS(=O)(=O)c1ccc(Cl)c(C(F)(F)F)c1)C(=O)O)C(=O)N1CCC[C@H]1CC(N)=O ({Benzenesulfonyl(4-Cl,3-CF3)-γGlu}-G[4Pal][Tle][β3hP]-NH2)
- Activity (Mus musculus): Active
